# According to patent US6232089A, “CD23 processing enzyme preparation” (SmithKline Beecham Corporation, priority 1998, dated 2001):
# “Also recorded” adds a separate entry of the source. Structures can show the parent of a compound that is named as a salt.
# Assays:
# CD23 processing enzyme [1] = test: Membrane CD23 cleavage activity assay (sCD23 release from plasma membranes of RPMI 8866 cells); type: biochemical, human; details: for IC50: membranes, read-out: IC50 for inhibition of CD23 processing (production of sCD23)
# Experimental: Membrane CD23 cleavage activity assay:
# Plasma membranes from RPMI 8866 cells, a human Epstein-Barr virus transformed B-cell (Sarfati et al., Immunology 60 (1987) 539-547), or a similar cell line expressing high levels of CD23 are purified using an aqueous extraction method. Cells resuspended in homogenization buffer (20 mM HEPES pH 7.4, 150 mM NaCl, 1.5 mM MgCl2, 1 mM DTT) are broken by N2 cavitation in a Parr bomb and the plasma membrane fraction mixed with other membranes recovered by centrifugation at 10,000×g. The light pellet is resuspended in 0.2 M potassium phosphate, pH 7.2 using 2 ml per 1-3 g wet cells and the nuclear pellet is discarded. The membranes are further fractionated by partitioning between Dextran 500 (6.4% w/w) and polyethylene glycol (PEG) 5000 (6.4% w/w) at 0.25 M sucrose in a total of 16 g per 10-15 mg membrane proteins (Morre and Morre, BioTechniques 7, 946-957 (1989)). The phases are separated by brief centrifugation at 1000×g and the PEG (upper) phase is collected, diluted 3-5 fold with 20 mM potassium phosphate buffer pH 7.4, and centrifuged at 100,000×g to recover membranes in that phase. The pellet is resuspended in phosphate-buffered saline and consists of 3-4 fold enriched plasma membranes as well as some other cell membranes (e.g. lysosomes, Golgi). The membranes are aliquoted and stored at -80° C. Fractionation at 6.6% Dextran/PEG yields plasma membranes enriched 10-fold.
# The fractionated membranes are incubated at 37° C. for times up to 4 hours to produce fragments of CD23 which are separated from the membrane after quenching the assay with 5 uM compound 1 by centrifugation at 10,000×g. These CD23 fragments are consistent with those reported (Letellier et al, J Exp. Med. 172, 693-700 (1990)): MW, app 36-37 kDa as determined by 12% sodium dodecylsulfate-polyacrylamide electrophoresis (SDS-PAGE) of N-terminal sequence QKSQ; MW, app 33 kDa with N-terminal sequence LKSQ. Additional bands not sequenced: MW, app 28-29 kDa and a doublet at 25-26 kDa. These are detected by Western blot of the total protein in the incubation using a polyclonal antibody such as the polyclonal anti-CD23 antibody in The Binding Site (Birmingham, UK) enzyme-linked immunoassay (EIA) Bindazyme kit for the determination of soluble CD23. Following removal of the membrane by centrifugation or filtration in 0.2 micron filter plates (Durapore, Millpore), sCD23 can also be determined using the EIA kit from The Binding Site or a similar one utilizing MHM6 anti-CD23 mAb (Rowe et al., Int. J. Cancer, 29, 373-382 (1982)) or another anti-CD23 mAb as the capture antibody in a sandwich EIA. […] Samples were incubated at 37° C. for the varying times, quenched with compound 1, applied to 12% SDS-PAGE, and Western blotting on PVDF (Bio-Rad) membrane performed using standard methodology with a combination of BD4 (prepared as described in Biological example 2) and a polyclonal antibody which recognizes all soluble fragments as the primary antibody. The blot was developed by ECL, scanned using a BioImage system and quantitated using the Visage analysis package.
# Inhibition of CD23 processing can also be determined by Western blot or by the 5 EIA (Elisa) method. The amount of soluble CD23 made by 0.5-5 ug membrane protein is measured either by quantitation of the Western blot as described using a Millipore BioImage system, or by EIA and compared to the amount made in the presence of various concentrations of inhibitors. Inhibitors are prepared in solutions of water or dimethylsulfoxide (DMSO) and the final DMSO concentration is not more than 2%. The enzyme activity of CD23 processing is inhibited by 1,10-phenanthroline (1 mM), and not by 1,7-phenanthroline (1 mM), PMSF (1 mM), E-64 (10 uM), pepstatin (10 uM), leupeptin (10 uM), or tosyl-leucylchloroketone (100 uM), and weakly by phosphoramidon (40% inhibition at 100 uM). The enzyme can heretofore best be described as a metalloprotease rather than a serine, cysteine or acid protease. […]
# CD23 processing enzyme [2] = test: Photolabeling of membranes or solubilized membrane proteins containing the CD23 processing enzyme, 12% SDS-PAGE / 2-dimensional gel electrophoresis; type: binding; details: for molecular weight range of photolabeled bands: 12% SDS-PAGE, ECL detection, several bands; for molecular weight range of majority of minor biotinylated spots / pH range of minor biotinylated spots (acidic proteins): 2-dimensional gel electrophoresis, 0.1 to 0.3 uM compound 4 or 1 uM compound 3
# Experimental: Compound 4 (Synthetic Example 17), Compound 5 (Synthetic Example 17a), Compound 6 (Synthetic Example 25), and Compound 7 (Synthetic Example 27) can also be used to photolabel membranes or solubilized membrane proteins containing the CD23 processing enzyme, using the same method described for compound 3. Analysis by 12% SDS-PAGE and ECL detection of biotinylated protein, using streptavidin-HRP detects several bands in the molecular weight range 50-65 kDa.
# Up to 200 ug of membrane proteins in PBS were solubilized in 0.1 % NP-40 and photolabeled with 0.1 to 0.3 uM compound 4 or 1 uM compound 3 as described for compound 3 above. The sample was then dialyzed vs. 10 mM potassium phosphate pH 7.5, 0.1% NP-40, concentrated in a Centricon 10 (Amicon, Beverly Mass.), then made 8 M in urea, 2% in Triton X-100, 0. 8% in Pharmalyte 3-10 (Pharmacia) and 50 mM in DTT. After electrophoresis in both dimensions, the proteins were blotted to PVDF, and biotinylated proteins detected with streptavidin-HRP as described above. The majority of the minor biotinylated spots observed were in the molecular weight range 50-65 kDa and were acidic proteins with pH in the range 4.5-6.0.
# CD23 processing enzyme [3] = test: Solubilized membrane protein CD23 processing enzyme assay; type: biochemical, human; details: concentration not given
# CD23 processing activity = test: Affinity chromatography with compound 8 on streptavidin-agarose; type: binding, human
# Experimental: Affinity Chromatography with compound 8 (compound 28 in synthetic examples)
# An affinity column was prepared with compound 8 on streptavidin-agarose beads (Pierce Chemical Co.) by overnight mixing of an estimated five equivalents of compound 8 with beads in 50 mM HEPES, pH 7.5, 0. 1% NP-40 (binding buffer). The column was washed with 20 volumes of this buffer and 20 volumes of 50 mM HEPES pH 7.5, 0.5% NP-40 in a syringe column, and re-equilibrated to binding buffer. An equivalent column with no compound 8 was also prepared. 150 ug of solubilized membranes from RPMI 8866 cells were applied to the both columns, washed with 3 ml binding buffer, 3 ml binding buffer with 0.1 M NaCl, and 3 ml binding buffer with 50 uM compound 2. Each 1 ml fraction was concentrated, diluted 10-fold and reconcentrated if compound 2 was present, and assayed as in biological example 2. For the column with no compound 8, CD23 processing activity was detected primarily in fractions 1-3, with a small amount in fractions 5 and 6.
# [4] = system: solubilized membrane proteins from BJAB cells; test: Photolabeling of Superose 12 column fractions of solubilized membrane proteins, SDS-PAGE; type: binding; details: 1 uM compound 3, long UV, 1 min, Superose 12 fractions, single band
# Experimental: Compound 3 is an inhibitor of CD23 processing in membranes with an IC50 of about 1-3 uM. Compound 3 (the synthesis of which is described in the Synthetic Examples section as Example 9), is [N-[4-N'-Hydroxyamino-2-(R)-2-(2-methylpropyl)succinyl]-S-4-azidophenylalanine-N"-(6-biotinoylaminohexyl)amide]. Compound 3 was prepared for use as a photolabeling agents as follows. [drawing 1]
# Column fractions from a Superose 12 column of solubilized membrane proteins from BJAB cells were photolabeled with 1 uM compound 3 using a Sunlit phosphor lamp at long UV for 1 min. […] Active fractions from RPMI 8866 fractionations are similarly photolabeled.
# Fractions were concentrated, photolabeled as described, applied to 12% SDS-PAGE, blotted to PVDF and photolabeled material detected with streptavidin-horseradish peroxidase (streptavidin-HRP) using ECL (Amersham) methodology. Fraction "0" indicates the photolabeling observed in an unfractionated sample. The 45 kDa MW marker protein migrated with an elution volume corresponding to fractions 17 or 18. The fraction sizes are not the same as FIG. 7.
# CD23 fragments = details: 10-20 mM, cell cultures; cited from earlier work
compound,measurement,setting,value
Cc1ccc(S(=O)(=O)N[C@@H](CCCCN)C(=O)CCl)cc1 [TLCK],inhibition of CD23 processing,CD23 processing enzyme [1]; concentration not given,not inhibited
"CC(C)C[C@@H](C(=O)N[C@@H](Cc1ccccc1)C(=O)NCCCCCCNC(=O)CCCC[C@@H]1SC[C@@H]2NC(=O)N[C@@H]21)[C@H](CSCc1ccc(C(=O)c2ccccc2)cc1)C(=O)NO [Compound 7, N-[(3-(S)-(4-benzoylbenzyl)thiomethyl-4-(N-Hydroxyamino)-2R-isobutyl)succinyl]-(S)-phenylalanine-N-(6-biotinoylaminohexyl)amide]",molecular weight range of photolabeled bands,CD23 processing enzyme [2],50-65 kDa
"CNC(=O)[C@H](Cc1ccccc1)NC(=O)[C@H](CC(C)C)[C@H](CSc1cccs1)C(=O)NO [Compound 1, [4-(N-Hydroxyamino)-2-(R)-isobutyl-3-(S)-(2-thiophenethiomethyl)succinyl]-(S)-phenylalanine-N-methylamide, sodium salt]",inhibition of CD23 processing,CD23 processing enzyme [1]; concentration not given,inhibited
same,IC50,CD23 processing enzyme [1],0.1 ± 0.05 µM
same,inhibition of activity producing the 33 kDa fragment,CD23 processing enzyme [3],inhibited
"C#CCSC[C@H](C(=O)NO)[C@@H](CC(C)C)C(=O)N[C@@H](Cc1ccccc1)C(=O)NCCCCCCNC(=O)CCCC[C@@H]1SC[C@@H]2NC(=O)N[C@@H]21 [Compound 8, N-[(3-(S)-propargylthiomethyl-4-(N-Hydroxyamino)-2R-isobutyl)succinyl]-(S)-phenylalanine-N-(6-biotinoylaminohexyl)amide]",inhibition of CD23 processing,CD23 processing enzyme [1]; concentration not given,inhibitor of CD23 cleavage activity
same,"fractions in which CD23 processing activity was detected, column with compound 8","CD23 processing activity; binding buffer, then 0.1 M NaCl, then 50 uM compound 2, fractions 1-9",only in fractions 7-9
"CC(C)C[C@H](CC(=O)NO)C(=O)N[C@@H](Cc1ccc(N=[N+]=[N-])cc1)C(=O)NCCCCCCNC(=O)CCCC[C@@H]1SC[C@@H]2NC(=O)N[C@@H]21 [Compound 3, N-[4-N'-Hydroxyamino-2-(R)-2-(2-methylpropyl)succinyl]-S-4-azidophenylalanine-N""-(6-biotinoylaminohexyl)amide]",IC50,CD23 processing enzyme [1],1 to 3 µM
same,"MW, app of photolabeled band",[4],45 kDa
same,molecular weight range of majority of minor biotinylated spots,CD23 processing enzyme [2],50-65 kDa
same,pH range of minor biotinylated spots (acidic proteins),CD23 processing enzyme [2],4.5-6.0
"c1cnc2c(c1)ccc1cccnc12 [1,10-phenanthroline]",inhibition of CD23 processing,CD23 processing enzyme [1]; 1 mM,inhibited
same,inhibition of activity producing the 33 kDa fragment,CD23 processing enzyme [3],inhibition; also recorded: inhibited
"CC(C)C[C@@H](C(=O)N[C@@H](Cc1ccccc1)C(=O)NCCCCCCNC(=O)CCCC[C@@H]1SC[C@@H]2NC(=O)N[C@@H]21)[C@H](CSCC(=NO)c1ccc(N=[N+]=[N-])cc1)C(=O)NO [Compound 4, N-[4-N' Hydroxyamino-3-(S)-3-[(2-[4-azidophenyl]-2-[hydroxyimino]ethyl)-thiomethyl]-2-(R)-2-(2-methylpropyl)succinyl]-S-phenylalanine-N'-(6biotinoylaminohexyl)amide]",molecular weight range of majority of minor biotinylated spots,CD23 processing enzyme [2],50-65 kDa
same,pH range of minor biotinylated spots (acidic proteins),CD23 processing enzyme [2],4.5-6.0
same,molecular weight range of photolabeled bands,CD23 processing enzyme [2],50-65 kDa
"CC(C)C[C@@H](C(=O)N[C@@H](Cc1ccccc1)C(=O)NCCCCCCNC(=O)CCCC[C@@H]1SC[C@@H]2NC(=O)N[C@@H]21)[C@H](CSCC(=O)c1ccc(N=[N+]=[N-])cc1)C(=O)NO [Compound 5, N-[4-Hydroxyamino-3-(S)-3-(4-azidophenacylthiomethyl)-2-(R)-2-(2-methylpropyl)succinyl]-S-phenylalanine-N'-(6-biotinoylaminohexyl)amide]",molecular weight range of photolabeled bands,CD23 processing enzyme [2],50-65 kDa
CC(C)C[C@H](CC(=O)NO)C(=O)N[C@@H](Cc1ccccc1)C(=O)NCc1ccccc1 [Compound 2],inhibition of CD23 processing,CD23 processing enzyme [1]; concentration not given,weaker inhibitor
same,IC50,CD23 processing enzyme [1],2 ± 1 µM
same,elution of CD23 processing activity from affinity column with compound 8,CD23 processing activity; 50 uM compound 2,specifically eluted
CC(C)C[C@H](NP(=O)(O)O[C@@H]1O[C@@H](C)[C@H](O)[C@@H](O)[C@H]1O)C(=O)N[C@@H](Cc1c[nH]c2ccccc12)C(=O)O [phosphoramidon],inhibition,CD23 processing enzyme [1]; 100 uM,40%
same,inhibition of CD23 processing,CD23 processing enzyme [1]; 100 uM,weakly
NC(=O)CI [iodoacetamide],accumulation of 37 and 33 kDa CD23 fragments,CD23 fragments,results in the accumulation
same,accumulation of the 25-27 kDa CD23 fragments,CD23 fragments,prevents the accumulation
"CC(C)(C)[C@H](NC(=O)[C@H](Cc1ccc(N=[N+]=[N-])cc1)[C@H](O)C(=O)NO)C(=O)NCCCCCCNC(=O)CCCC[C@@H]1SC[C@@H]2NC(=O)N[C@@H]21 [Compound 6, N'-[3S-Hydroxy-4-(N-hydroxyamino)-2R-(4-azidobenzyl)succinyl]-S-tert-leucine-N-(6-biotinoylaminohexyl)amide]",molecular weight range of photolabeled bands,CD23 processing enzyme [2],50-65 kDa
